# Assay results taken from ChEMBL document CHEMBL5036377, “Improved Metabolically Stable 5-HT Receptor Modulators and the Development of New Antidepressants” (ACS Med Chem Lett, 2022).
# Legend:
# [1] = Stability in human liver mitochondria assessed as compound remaining in presence of MAO-A and MAO-B measured after 60 mins; assay type: ADME; details: read-out: Stability
# [2] = Stability in rat brain homogenate assessed as compound remaining measured after 120 mins; assay type: ADME, tissue-based; details: read-out: Stability
# [3] = Stability in rat brain homogenate assessed as half life; assay type: ADME, tissue-based
SMILES,remaining at 1 h [1] [%],remaining at 2 h [2] [%],half-life [3] [h]
CN(C)CCc1c[nH]c2ccccc12,8.9,0,0.085
COc1ccc2[nH]cc(CCN3CCC3)c2c1,106,98,> 4.82
Oc1cccc2[nH]cc(CCN3CCC3)c12,88.2,56.8,2.91
c1ccc2c(CCN3CCC3)c[nH]c2c1,85.2,91.9,> 4.82
COc1ccc2[nH]cc(CCN(C)C)c2c1 [MEBUFOTENIN],47.1,0.3,0.24
CN(C)CCc1c[nH]c2cccc(O)c12 [PSILOCIN],112,46.1,1.91
